# Measurements: patent US8796245B2 (TetraPhase Pharmaceuticals, Inc., priority 2008, dated 2014)
# Read-outs that look alike come from different tables or passages of the source.
# Legend:
# Format in all cases: cell-based
# [1] = tested on: S. pneumoniae SP160 (tet resistant: tet M); assay: Minimum inhibitory concentration assay, SP160; conditions: Streptococcus pneumoniae, read-out: MICs SP160
# Experimental: (§1) Frozen bacterial strains were thawed and subcultured onto Mueller Hinton Broth (MHB) or other appropriate media (Streptococcus requires blood and Haemophilus requires hemin and NAD). Following incubation overnight, the strains were subcultured onto Mueller Hinton Agar and again incubated overnight. […] Isolated colonies were selected to prepare a starting inoculum equivalent to a 0.5 McFarland standard. The starting inoculum was diluted 1:125 using MHB for further use. Test compounds were prepared by dilution in sterile water to a final concentration of 5.128 mg/mL. Antibiotics (stored frozen, thawed and used within 3 hours of thawing) and compounds were further diluted to the desired working concentrations.
# (§2) The assays were run as follows. Fifty μL of MHB was added to wells 2-12 of a 96-well plate. One hundred […] of appropriately diluted antibiotics was added to well 1. Fifty μL of antibiotics was removed from well 1 and added to well 2 and the contents of well 2 mixed by pipetting up and down five times. Fifty μL of the mixture in well 2 was removed and added to well 3 and mixed as above. Serial dilutions were continued in the same manner through well 12. Fifty μL was removed from well 12 so that all contained 50 μL. Fifty μL of the working inoculum was then added to all test wells. A growth control well was prepared by adding 50 μL of working inoculum and 50 μL of MHB to an empty well. The plates were then incubated at 37° C. overnight, removed from the incubator and each well was read on a plate reading mirror. The lowest concentration (MIC) of test compound that inhibited the growth of the bacteria was recorded.
# [2] = tested on: K. pneumoniae ATCC 13883 (KP109); assay: Minimum inhibitory concentration assay, KP109; conditions: Klebsiella pneumoniae, ATCC13883; K. pneumoniae ATCC 13883, wt; read-out: MICs KP109
# Experimental: as §1, §2
# [3] = tested on: E. faecalis ATCC 29212 (EF103); assay: Minimum inhibitory concentration assay, EF103; conditions: Enterococcus faecalis, ATCC29212, read-out: MICs EF103
# Experimental: as §1, §2
# [4] = tested on: S. aureus ATCC 13709 (SA100, MSSA, Smith strain); assay: Minimum inhibitory concentration assay, SA100; conditions: Staphylococcus aureus; S. aureus ATCC 13709, MSSA Smith strain; read-out: MICs SA100
# Experimental: as §1, §2
# [5] = tested on: E. faecalis EF159 (tet resistant: tetM); assay: Minimum inhibitory concentration assay, EF159; conditions: Enterococcus faecalis, read-out: MICs EF159
# Experimental: as §1, §2
# [6] = tested on: P. aeruginosa ATCC 27853 (PA111); assay: Minimum inhibitory concentration assay, PA111
# Experimental: as §1, §2
# [7] = tested on: E. cloacae ATCC 13047 (EC108); assay: Minimum inhibitory concentration assay, EC108
# Experimental: as §1, §2
# [8] = tested on: E. coli ATCC 25922 (EC107); assay: Minimum inhibitory concentration assay, EC107; conditions: Escherichia coli, ATCC25922; E. coli ATCC 25922, wt; read-out: MICs EC107
# Experimental: as §1, §2
# [9] = tested on: E. coli EC155 (tet resistant: tetA efflux); assay: microbe, parasite or virus in culture
# Experimental: as §1, §2
# [10] = tested on: S. aureus SA158 (tet resistant: tetK efflux); assay: microbe, parasite or virus in culture; conditions: Staphylococcus aureus, read-out: MICs SA158
# Experimental: as §1, §2
# [11] = tested on: K. pneumoniae KP153 (tet resistant: tetA efflux); assay: microbe, parasite or virus in culture; conditions: Klebsiella pneumoniae, read-out: MICs KP153
# Experimental: as §1, §2
# [12] = tested on: S. aureus SA161 (tet resistant: tet(M) ribosomal protection); assay: Minimum inhibitory concentration assay, SA161; conditions: Staphylococcus aureus, read-out: MICs SA161
# Experimental: as §1, §2
# [13] = tested on: A. baumanii ATCC 19606 (AB110); assay: Minimum inhibitory concentration assay, AB110
# Experimental: as §1, §2
# [14] = tested on: S. pneumoniae ATCC 49619 (SP106); assay: Minimum inhibitory concentration assay, SP106; conditions: Streptococcus pneumoniae, ATCC49619; S. pneumoniae ATCC 49619, wt; read-out: MICs SP106
# Experimental: as §1, §2
# [15] = tested on: S. aureus ATCC 29213 (SA101, MSSA); assay: Minimum inhibitory concentration assay, SA101; conditions: for MIC: Staphylococcus aureus, S. aureus ATCC 29213, MSSA control, read-out: MICs SA101; for MIC SA101 29213: control compounds, numeric MIC, 0.016 means 0.016 or lower
# Experimental: as §1, §2
# [16] = Pseudomonas aeruginosa, ATCC27853, P. aeruginosa ATCC 27853, wt, read-out: MICs PA111
# [17] = Enterobacter cloacae, ATCC13047, E. cloacae ATCC 13047, wt, read-out: MICs EC108
# [18] = Escherichia coli, E. coli tet resistant: tetA (efflux), read-out: MICs EC155
# [19] = Acinetobacter baumannii, ATCC19606, A. baumanii ATCC 19606, wt, read-out: MICs AB110
# [20] = PA111, control compounds, numeric
# [21] = EC108, control compounds, numeric
# [22] = AB110, control compounds, numeric
# [23] = EC155 tetA, control compounds, numeric
SMILES,MIC [1] [µg/mL],MIC [2] [µg/mL],MIC [3] [µg/mL],MIC [4] [µg/mL],MIC [5] [µg/mL],"MIC [6, 16] [µg/mL]","MIC [7, 17] [µg/mL]",MIC [8] [µg/mL],"MIC [9, 18] [µg/mL]",MIC [10] [µg/mL],MIC [11] [µg/mL],MIC [12] [µg/mL],"MIC [13, 19] [µg/mL]",MIC [14] [µg/mL],MIC [15] [µg/mL],"MIC [6, 20] [µg/mL]","MIC [7, 21] [µg/mL]","MIC [13, 22] [µg/mL]",MIC SA101 29213 [15] [µg/mL],"MIC [9, 23] [µg/mL]"
CCCN(C)CC(=O)Nc1cc(F)c2c(c1O)C(=O)C1=C(O)[C@]3(O)C(=O)C(C(N)=O)=C(O)[C@@H](N(C)C)[C@@H]3C[C@@H]1C2 [Compound 28],0.0625,4,1,2,1,> 32,8,2,16,1,16,2,0.5,0.125,1,,,,,
CN(C)[C@@H]1CCN(CC(=O)Nc2cc(F)c3c(c2O)C(=O)C2=C(O)[C@]4(O)C(=O)C(C(N)=O)=C(O)[C@@H](N(C)C)[C@@H]4C[C@@H]2C3)C1 [Compound 37],4,> 32,16,8,16,> 32,> 32,> 32,> 32,> 32,> 32,> 32,> 32,2,8,,,,,
COCCCNCC(=O)Nc1cc(F)c2c(c1O)C(=O)C1=C(O)[C@]3(O)C(=O)C(C(N)=O)=C(O)[C@@H](N(C)C)[C@@H]3C[C@@H]1C2 [Compound 27],0.5,8,2,2,4,> 32,16,4,32,16,32,4,16,0.125,2,,,,,
CCCCNCC(=O)Nc1cc(F)c2c(c1O)C(=O)C1=C(O)[C@]3(O)C(=O)C(C(N)=O)=C(O)[C@@H](N(C)C)[C@@H]3C[C@@H]1C2 [Compound 13],≤ 0.0156,0.5,≤ 0.0156,≤ 0.0156,0.0625,16,1,0.125,4,0.25,2,0.0625,0.25,≤ 0.0156,≤ 0.0156,,,,,
CN(C)c1ccc(O)c2c1C[C@H]1C[C@H]3[C@H](N(C)C)C(O)=C(C(N)=O)C(=O)[C@@]3(O)C(O)=C1C2=O [Minocycline],,,,,,,,,,,,,,,,16,2,0.06,0.06,
CN(C)c1cc(NC(=O)CNC(C)(C)C)c(O)c2c1C[C@H]1C[C@H]3[C@H](N(C)C)C(O)=C(C(N)=O)C(=O)[C@@]3(O)C(O)=C1C2=O [Tigecycline],,,,,,,,,,,,,,,,8,0.25,0.25,0.06,0.5
CN(C)[C@@H]1C(O)=C(C(N)=O)C(=O)[C@@]2(O)C(O)=C3C(=O)c4c(O)cccc4C[C@H]3C[C@@H]12 [Sancycline],,,,,,,,,,,,,,,,> 32,8,0.25,0.5,32
